Patent US11999723B2, “Pyrazole-containing macrophage migration inhibitory factor inhibitors” (priority 2018, dated 2024)
In brackets after ≈: the same amount, converted by molar mass. Several values for one entry are separate records, joined by “and”; a condition that tells them apart may be missing. Equal values may be shown once. Read-outs that look alike come from different tables or passages of the source.

Columns and labels:
[1] = Aqueous solubility, shake-flask method; type: physicochemical; conditions: Britton-Robinson buffer at pH 6.5; for solubility at 48 h: 30 °C, aqueous buffer, thermodynamic from solid
Method: Aqueous solubility values of selected compounds were obtained via the shake-flask method. The solid sample (1-4 mg) was suspended in 1.5-2.0 mL Britton-Robinson (BR) buffer (0.04 M acetic acid, 0.04 M phosphoric acid, 0.04 M boric acid, pH 6.5). The mixture, containing excess undissolved compound, was stirred at 30° C. for 48 hours. The saturated solution was separated from the precipitate by filtration through a 0.45 μm polyethersulfone membrane (VWR International). The filtrate was diluted with BR buffer if necessary, then cut with an equal volume of DMSO. UV-vis absorbance was measured with an Agilent 8453 UV-visible Spectroscopy System (200-900 nm). Calibration curves were prepared with sample concentrations ranging from 0.24 μg/mL-0.25 mg/mL in 50:50 DMSO/BR buffer. Reported solubility results are the average values of two shake-flask experiments run in parallel. Piroxicam (purchased from Sigma-Aldrich) was used as a control, using BR buffer at pH 3.73.
The compounds reported here are listed in Table 2 along with the results from the tautomerase assay. The identity of assayed compounds was confirmed by ^1H and ^13C NMR and high-resolution mass spectrometry; HPLC analyses established purity as >95%. As in prior studies, the inhibition constants Ki were determined using HPP as the substrate. Inhibitory activity is monitored by measuring formation of the borate complex of the enol product at 305 nm using a Tecan Infinite F500 plate reader. In addition, the aqueous solubilities of several compounds were measured with a shake-flask procedure. Saturated solutions are filtered (polyethersulfone syringe, 0.2 μm pore) and analyzed by UV-vis spectroscopy (Agilent 8453).

MIF [2] = target: T1, MIF (Homo sapiens (Human), UniProt P14174); test: Tautomerase assay using 4-hydroxyphenylpyruvate (HPP), initial virtual screening study; type: biochemical; conditions: at 50 μM; HPP substrate
From the text: Success in the past has come from exchange of the phenol for a 6:5 fused heteroaromatic incorporating a pyrrole or pyrazole that retains the hydrogen-bond donating character of phenol. However, the MIF active site is too constricted near Asn97 for this approach to be viable; addition of a methyl group ortho to the hydroxyl group for the compound in FIG. 1 leads to a ca. 100-fold loss in activity. Instead, interest has focused on direct replacement of the phenol by a pyrazole. […] Thus, an alternative series from the virtual screening and from de novo design was pursued, which provided the biaryltriazoles including 2. However, interest in 5 was renewed since in another phenol-containing inhibitor series rapid metabolic glucoronidation and sulfation were observed. It was decided to retest 5 in an HPP tautomerase assay using optimized protocols.

MIF [3] = target: T1, MIF; test: HPP tautomerase assay (inhibition of the tautomerase activity of MIF); type: biochemical
Method: Inhibition of the tautomerase activity of MIF was measured using the substrate 4-hydroxyphenyl pyruvic acid (HPP) in a procedure largely adapted from previous reports. A solution of HPP (10 mM) in acetate buffer (0.5 M ammonium acetate, pH adjusted to 6.0) was prepared and allowed to incubate overnight in the dark at room temperature to allow for equilibration of the keto and enol forms. Following the incubation period, the HPP solution was stored at 4° C. and used for no more than a week. […] A negative control (containing water and DMSO in lieu of protein and inhibitor, respectively) and a positive control (containing DMSO in lieu of inhibitor) were also prepared. The reaction began upon the addition of HPP solution (final concentration: 1.0 mM and 2.5 mM). […] Absorbance was measured three times for each [inhibitor]-[HPP] combination. […] Reported Ki values represent the average value obtained from two assays performed on different days. (R)-ISO-1 (purchased from Santa Cruz Biotechnology) was used as a control.
Recombinant human MIF was expressed and purified according to published protocols. Briefly, for the purification of MIF, E. coli cell pellets were suspended in lysis buffer (20 mM Tris, pH 7.5; 20 mM sodium chloride; 10% glycerol; 2 mM magnesium chloride; 1 cOmplete mini protease inhibitor cocktail tablet per 250 mL of buffer). The solution was sonicated and centrifuged at 27,000G for 30 mins. The supernatant was filtered through a 0.22 μm syringe filter and loaded on a GE Healthcare Hi-Trap SP HP column in sequence with a GE Healthcare Hi-Trap Q SP column equilibrated with a buffer composed of 20 mM NaCl and 20 mM Tris, pH 7.5. […] To achieve highest purity, the flow-through was further purified with a GE Healthcare Superdex 200 column. The purified protein was concentrated with a 10 kDa centrifugal filter unit to 30 mg/mL, flash-frozen in liquid nitrogen, and stored at −80° C.
As in prior studies, the inhibition constants Ki were determined using HPP as the substrate. […] In addition, the aqueous solubilities of several compounds were measured with a shake-flask procedure.

[4] = HPP as substrate, MIF tautomerase, read-out: Experimental inhibition constants, Ki
[5] = Table 3, HPP as substrate, unit inferred, read-out: HPP Ki

T1 sequence (P14174 2-115): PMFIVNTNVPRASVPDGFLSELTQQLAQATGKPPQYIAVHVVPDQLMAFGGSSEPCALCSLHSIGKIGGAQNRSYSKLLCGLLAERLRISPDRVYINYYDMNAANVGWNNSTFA

O=C(O)c1cccc(-c2cn[nH]c2)c1 [Compound 5, reference compound]
aqueous solubility [1]: 927+88 μg/mL | maximum inhibition (MIF [2]): 30%

O=C(O)c1cc(-c2cn[nH]c2)ccc1Oc1ccc2ccccc2c1 [Compound 8g, 2-(Naphthalen-2-yloxy)-5-(1H-pyrazol-4-yl)benzoic acid]
Ki (MIF [3]; [4]): 4.3 µM | solubility at 48 h [1]: 739 µg/mL (≈ 2240 µM)

NS(=O)(=O)c1cc(-c2cn[nH]c2)ccc1Oc1ccc2ccccc2c1 [Compound 8i, 2-(Naphthalen-2-yloxy)-5-(1H-pyrazol-4-yl)benzenesulfonamide]
Ki (MIF [3]; [4]): 5.6 µM | solubility at 48 h [1]: 55.2 µg/mL (≈ 151 µM)

O=C(O)c1cc(-c2c[nH]nc2F)ccc1Oc1ccc2ccccc2c1 [Compound 8n, 5-(3-Fluoro-1H-pyrazol-4-yl)-2-(naphthalen-2-yloxy)benzoic acid]
solubility at 48 h [1]: 681 µg/mL (≈ 1960 µM)

CCOc1ccc(-c2cccc(Oc3ccc(-c4c[nH]nc4F)cc3C(=O)O)c2)cc1 [Compound 8w, 2-((4′-Ethoxy-[1,1′-biphenyl]-3-yl)oxy)-5-(3-fluoro-1H-pyrazol-4-yl)benzoic acid]
Ki (MIF [3]): ~0.07 µM | Ki (MIF [3]; [4]): 0.075 µM | solubility at 48 h [1]: 1.7 ± 0.7 µg/mL (≈ 4.06 µM)

O=C(O)c1cc(-c2c[nH]nc2F)ccc1Oc1cccc(-c2ccc(OCCCN3CCOCC3)cc2)c1 [Compound 8x, 5-(3-Fluoro-1H-pyrazol-4-yl)-2-((4′-(3-morpholinopropoxy)-[1,1′-biphenyl]-3-yl)oxy)benzoic acid]
solubility at 48 h [1]: 34.6 µg/mL and 67 µM

O=C(O)c1cc(-c2c[nH]nc2F)ccc1Oc1cc2c3c(cccc3c1)CC2 [Compound 9v, 2-((1,2-dihydroacenaphthylen-4-yl)oxy)-5-(3-fluoro-1H-pyrazol-4-yl)benzoic acid]
Ki (MIF [3]; [5]): 0.1 µM

O=C(O)c1cc(-c2c[nH]nc2F)ccc1Oc1cccc(C(F)(F)F)c1 [Compound 9w, 5-(3-fluoro-1H-pyrazol-4-yl)-2-(3-(trifluoromethyl)phenoxy) benzoic acid]
Ki (MIF [3]; [5]): 0.71 µM

O=C(O)c1cc(-c2c[nH]nc2F)ccc1Oc1ccc2ccc(C3CC3)cc2c1 [Compound 9x, 2-((7-cyclopropylnaphthalen-2-yl)oxy)-5-(3-fluoro-1H-pyrazol-4-yl)benzoic acid]
Ki (MIF [3]; [5]): 0.15 µM

O=C(O)c1cc(-c2c[nH]nc2F)ccc1Oc1ccc2c(c1)CCCC2 [Compound 9y, 5-(3-fluoro-1H-pyrazol-4-yl)-2-((5,6,7,8-tetrahydronaphthalen-2-yl)oxy)benzoic acid]
Ki (MIF [3]; [5]): 0.26 µM

O=C(O)c1cc(-c2c[nH]nc2F)ccc1Oc1ccc2c(C3CC3)cccc2c1 [Compound 9z, 2-((5-cyclopropylnaphthalen-2-yl)oxy)-5-(3-fluoro-1H-pyrazol-4-yl)benzoic acid]
Ki (MIF [3]; [5]): 0.11 µM
